Results from patent US20220143060A1, “METHOD FOR TREATING INFECTIOUS DISEASES BY TARGETING NK CELL IMMUNE CHECKPOINT” (priority 2019, published 2022).

Key:
[1] = system: Qa-1; test: Qa-1 mRNA expression of different cell components in liver tissue after siRNA treatment; type: in vivo, C/O-Tg mice; details: tail vein injection, two weeks of treatment, vs control siRNA (FIG. 8B)
Source text: On the other hand, it was investigated whether suppression of the expression of immune checkpoint molecules can promote the elimination of HCV.

[2] = system: HCV (J399EM); test: HCV copy number in serum/peripheral blood and liver tissue by qPCR in HCV-infected C/O-Tg mice; type: in vivo; details: two weeks of treatment, vs control (FIG. 7B, 8C)
Description: This mouse model of HCV infection was first reproduced and confirmed. HCV (J399EM, 1 mL, TCID50=2×10^7) was used for tail vein infusion in C/O-Tg mice and wild-type littermate control mice. […] The above results are consistent with the observation in patients infected with HCV (Fahey S, Dempsey E, Long A. The role of chemokines in acute and chronic hepatitis C infection. Cellular and Molecular Immunology 11, 25 (2014)).
Since CD8+ T cells are generally thought to play an important role in viral infection and clearance, the expression profile of CD8+T immune checkpoint molecules during HCV infection was first tested. […] Based on this, it was tested whether targeting T cell immune checkpoint molecules can inhibit the chronic infection process.
In order to further investigate the therapeutic effect of NKG2A blockade on chronic HCV infection, mice were administered with NKG2A blocking antibodies two weeks after HCV infection. Up-regulation of NKG2A expression has been observed at this stage (FIG. 3C) and administration was lasted for two weeks (FIG. 6A).

[3] = system: liver NK cells; test: in vitro NK function assay: liver NK cells of treated mice co-cultured with target cells Yac-1, flow cytometry (CD107a, granzyme B, IFN-γ); type: in vivo, C/O-Tg mice; details: two weeks of treatment with Qa-1 siRNA, vs control siRNA (FIG. 8D)

What does the source list for “cholesterol-conjugated siRNA against Qa-1: cholesterol-conjugated siRNA against Qa-1, sequence GAAGAGGAGGAGACACAUA, synthesized by GenePharma (cholesterol-conjugated, position not given here)”?
Qa-1 expression (mRNA) in liver cell components [1]: selectively down-regulated Qa-1 in hepatocytes; HCV replication (copy numbers of virus in serum and liver tissues) [2]: inhibited HCV replication; depletion process of NK cells (CD107a and IFN-γ) [3]: reversed
